# Assay: Retinyl ester stability in moisturising cream formulations (HPLC)
# Type: physicochemical
# Conditions: 0.03 and 0.15% retinyl ester in cream; stored at 22, 30, 45 and 50° C.; sampled over 35 days; FIGS. 1 and 2
# Procedure: Retinyl Linoleate from National Starch Corp. and the retinyl ester product from example 1 were blended into moisturising cream formulations shown below in Formulations 1 and 2 at a level of 0.03 and 0.15% of the retinyl ester. The creams were stored at 22° C., 30° C., 45° C. and 50° C. and samples taken at time 0, and twice more over 35 days as shown in FIGS. 1 and 2.
# The retinyl esters were extracted from the base cream 60/40 acetone/acetonitrile, stirred for 10 minutes, filtered and then injected These were then analysed by HPLC according to the conditions below.
# FIGS. 1 and 2 show the stability results for the samples.
smiles,measurement,value
CCCCCCCCCCCCCCCC(=O)OC/C=C(C)/C=C/C=C(C)/C=C/C1=C(C)CCCC1(C)C [retinyl palmitate],stability in moisturising cream,only as stable as retinyl linoleate (National Starch)

# — US8030352B2, “Method of producing retinyl esters” (Unilever Home & Personal Care USA, division of Conopco, Inc., priority 2002, dated 2011)
